Source: patent publication US7342018B2, “Urokinase inhibitors and uses thereof” (Wilex AG, priority 1998, dated 2008)
Values joined by “and” are separate entries in the source; they are usually repeats but may differ in a detail not shown here. Equal entries are not always repeated.

Tests used:
Plasma kallikrein = Plasma kallikrein (Homo sapiens, UniProt P03952); assay: In vitro inhibition of serine proteases: plasma kallikrein; format: biochemical
Protocol: To determine the inhibitory activity, 200 μl of Tris buffer (0.05 mol/l, containing the inhibitor, 0.154 mol/l NaCl, 5% ethanol pH 8.0), 25 μl of substrate (Pefachrome UK or Bz-βAla-Gly-Arg-pNA in H2O; Pentapharm Ltd., Basle, Switzerland) and 50 μl of sc-urokinase (Ribosepharm GmbH, Haan, Germany) were incubated at 25° C. After 3 min the reaction was stopped by adding 25 μl of acetic acid (50%), and the absorption at 405 nm was determined by means of a Microplate Reader (MR 5000, Dynatech, Denkendorf, Germany). Ki values were determined according to Dixon by linear regression using a computer program. The Ki values are the mean values of at least three determinations with a standard deviation of less than 25%.
The inhibition activities of the enzymes used were determined according to the principle described in Example 3.

[1] = Solubility in Tris buffer; settings: Tris buffer (pH 7.3)
[2] = system: BN-472 breast cancer tumor; assay: Breast cancer model in rats (Example 7); format: in vivo; settings: for average tumor weights at the end of the treatment, reduced to % of vehicle-treated control / mean weights of the axillary lymph nodes, reduced to % of control / number of lung foci, reduced to % of control: 1 mg/kg daily
Protocol: 10-25 mm^3 of BN-472 breast cancer tumor fragments from rats were transplanted into female brown Norwegian rats from 6 to 7 weeks old, subcutaneously and orthotopically under the subcutaneous fat of the mammary gland (Day 0). The treatment of the animals was started intraperitoneally 24 hours after tumor inoculation. Each group consisted of eight animals. The control group received only the injection solution (100 μl of a 10% ethanol/saline (0.9% NaCl) solution). A dose of 1 mg/kg body weight was intraperitoneally administered on a daily basis to the comparative group of the naphthyl derivative. (B) and to the therapy group of the inventive uPA inhibitor (A). The treatment was carried out over a period of 4 weeks.
The dimensions of the subcutaneous tumors and the weight of the animals were determined weekly. At the end of the treatment the animals were sacrificed and tumor weights, organ weights and the number of metastases in relevant tissues were determined.
The experiments described in sections A and B were repeated with the inhibitor administered in a different way. For this, the inhibitor was administered subcutaneously in the breast carcinoma model (n=9) and intraperitoneally in the pancreatic adenocarcinoma model (n=8) without changing the daily dose. The results of these repeat experiments corresponded to the results already discussed, both in tendency and extent.

Factor Xa = Factor Xa (Homo sapiens, UniProt P00742); assay: In vitro inhibition of serine proteases: factor Xa; format: biochemical
Protocol: Ki values were determined according to Dixon by linear regression using a computer program.

[3] = Biodistribution of the inhibitor in rats (HPLC of tissue extracts); format: in vivo, rat; settings: for concentration in tracheal lymph nodes: two independent experiments, hydrochloride
Protocol: The biodistribution of the inhibitor was determined by two independent experiments in tissue extracts of rats which had been treated once a day with 1 mg/kg i.p. of inhibitor i.p. over a period of 5 or 10 days. For the lysis, in each case 100 mg of tissue were mechanically comminuted and mixed with 200 μl of 1% Triton X-100 in physiological NaCl solution. After adding 400 μl of ethanol, the mixture was sonicated for 1 min. The tissue extract was centrifuged at 12,000×g for 15 min. For prepurification, the supernatant was applied to a C18 Silica Reversed Phase column (Sep-Pak® cartridge C18, 1 ml Water, Eschborn, Germany), equilibrated with 1 ml of methanol and 1 ml of water, washed successively with 2×1 ml H2O, 1 ml 10% methanol, 1 ml H2O, 1 ml 5% acetonitrile, 0.04% perchloric acid and 1 ml H2O and eluted with 500 μl of 75% acetonitrile, 0.04% perchloric acid. HPLC analysis was carried out on a reversed phase C18 silica column with a 5-55% strength acetonitrile gradient containing 0.04% perchloric acid.

[4] = concluded from plasma vs tissue concentrations

Sequence of Plasma kallikrein (P03952 20-638, species assumed): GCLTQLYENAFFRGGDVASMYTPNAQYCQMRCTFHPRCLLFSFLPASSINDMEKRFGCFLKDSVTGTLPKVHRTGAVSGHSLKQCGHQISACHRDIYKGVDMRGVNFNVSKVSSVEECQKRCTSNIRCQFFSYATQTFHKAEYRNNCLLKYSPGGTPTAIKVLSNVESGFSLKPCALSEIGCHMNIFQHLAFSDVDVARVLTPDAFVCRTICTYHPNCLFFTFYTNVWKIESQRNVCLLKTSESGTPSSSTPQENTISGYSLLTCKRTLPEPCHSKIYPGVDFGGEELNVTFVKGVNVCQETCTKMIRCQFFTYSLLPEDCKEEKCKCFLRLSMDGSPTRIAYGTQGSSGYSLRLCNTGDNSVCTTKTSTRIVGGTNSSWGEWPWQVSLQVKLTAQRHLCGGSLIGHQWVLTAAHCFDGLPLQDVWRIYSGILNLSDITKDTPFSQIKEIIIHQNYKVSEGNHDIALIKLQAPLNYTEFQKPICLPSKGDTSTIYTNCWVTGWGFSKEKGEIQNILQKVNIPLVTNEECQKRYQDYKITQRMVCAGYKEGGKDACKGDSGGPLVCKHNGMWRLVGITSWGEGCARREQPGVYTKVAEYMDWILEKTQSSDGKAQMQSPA
Sequence of Factor Xa (P00742 235-488 limits assumed): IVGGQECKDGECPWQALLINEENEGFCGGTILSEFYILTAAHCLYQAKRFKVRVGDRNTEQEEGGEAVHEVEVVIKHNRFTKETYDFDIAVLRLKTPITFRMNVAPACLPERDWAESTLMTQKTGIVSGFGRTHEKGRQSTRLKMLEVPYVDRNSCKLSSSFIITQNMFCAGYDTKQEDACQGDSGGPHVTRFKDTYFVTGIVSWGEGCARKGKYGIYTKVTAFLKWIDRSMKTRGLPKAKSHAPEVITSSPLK
Sequence of Factor Xa (P00742 41-179 partner limits assumed): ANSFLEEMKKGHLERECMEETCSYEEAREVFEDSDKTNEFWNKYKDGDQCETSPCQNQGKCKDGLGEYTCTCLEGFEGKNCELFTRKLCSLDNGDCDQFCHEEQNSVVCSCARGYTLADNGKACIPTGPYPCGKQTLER

CCOC(=O)N1CCN(C(=O)[C@H](Cc2cccc(C(=N)N)c2)NS(=O)(=O)c2c(C(C)C)cc(C(C)C)cc2C(C)C)CC1.Cl [uPA inhibitor, Nα-2,4,6-Triisopropylphenylsulfonyl-(L)-3-amidinophenylalanine 4-ethoxycarbonylpiperazide hydrochloride]
Ki (Plasma kallikrein): 7.2 µM | solubility ([1]; addition of 5% DMSO): 10^−3 mol/l | solubility ([1]; addition of 5% ethanol): 2×10^−4 moll | weights of lung, liver, kidney and spleen ([2]; 1 mg/kg i.p. daily, 4 weeks, compared to control animals): unchanged | weight of the primary tumor ([2]; 1 mg/kg i.p. daily, 4 weeks, p=0.003 vs naphthyl derivative (B) and control): significant reduction | weight of the axillary lymph nodes ([2]; 1 mg/kg i.p. daily, 4 weeks, p=0.005 vs naphthyl derivative (B) and control): significant reduction | toxicity (body weight increase, organ weights) ([2]; breast and pancreatic tumor models in rats, inhibitor-treated vs vehicle-treated groups): no indications of any considerable toxicity | average tumor weights at the end of the treatment, reduced to % of vehicle-treated control ([2]; i.p.): 23% | mean weights of the axillary lymph nodes, reduced to % of control ([2]; i.p.): 27% | number of lung foci, reduced to % of control ([2]; i.p.): 9% | number of metastatic lung foci ([2]; rat breast cancer model, vs vehicle-treated controls): substantially reduced | sizes of subcutaneous tumors ([2]; rat pancreatic and breast cancer models, vs vehicle-treated controls): reduced | average tumor weights at the end of the treatment, reduced to % of vehicle-treated control ([2]; s.c.): 37% | mean weights of the axillary lymph nodes, reduced to % of control ([2]; s.c.): 48% | number of lung foci, reduced to % of control ([2]; s.c.): 32% | Ki (Factor Xa): 1.7 µM | Content Bile ([3]; 1 mg/kg i.p. 5 days): 1.96 µg/mL | Content Brain ([3]; 1 mg/kg i.p. 5 days): <0.5 µg/g | Content Fat/kidney ([3]; 1 mg/kg i.p. 5 days): 0.82 µg/g | Content Heart ([3]; 1 mg/kg i.p. 5 days): <0.5 µg/g | Content Kidney ([3]; 1 mg/kg i.p. 5 days): 2.67 µg/g | Content Liver ([3]; 1 mg/kg i.p. 5 days): 2.85 µg/g | Content Lung ([3]; 1 mg/kg i.p. 5 days): 3.70 µg/g | Content Lymph nodes/trachea ([3]; 1 mg/kg i.p. 5 days): 7.45 µg/g | Content Muscle ([3]; 1 mg/kg i.p. 5 days): 0.74 µg/g | Content Plasma ([3]; 1 mg/kg i.p. 5 days): 0.008 µg/mL | Content Spleen ([3]; 1 mg/kg i.p. 5 days): 2.02 µg/g | Content lymph nodes/axillary ([3]; 1 mg/kg i.p. 5 days): 1.97 µg/g | Content lymph nodes/knee ([3]; 1 mg/kg i.p. 5 days): 7.83 µg/g | Content Bile ([3]; 1 mg/kg i.p. 10 days): 1.75 µg/mL | Content Brain ([3]; 1 mg/kg i.p. 10 days): <0.5 µg/g | Content Fat/kidney ([3]; 1 mg/kg i.p. 10 days): 1.0 µg/g | Content Heart ([3]; 1 mg/kg i.p. 10 days): 1.09 µg/g | Content Kidney ([3]; 1 mg/kg i.p. 10 days): 2.48 µg/g | Content Liver ([3]; 1 mg/kg i.p. 10 days): 2.08 µg/g | Content Lung ([3]; 1 mg/kg i.p. 10 days): 1.81 µg/g | Content Lymph nodes/trachea ([3]; 1 mg/kg i.p. 10 days): 16.38 µg/g | Content Muscle ([3]; 1 mg/kg i.p. 10 days): <0.5 µg/g | Content Plasma ([3]; 1 mg/kg i.p. 10 days): 0.035 µg/mL | Content Spleen ([3]; 1 mg/kg i.p. 10 days): 2.48 µg/g | Content lymph nodes/axillary ([3]; 1 mg/kg i.p. 10 days): 2.74 µg/g | Content lymph nodes/knee ([3]; 1 mg/kg i.p. 10 days): 3.8 µg/g | plasma concentrations relative to the mean tissue concentrations ([3]; 24 h after the last i.p. administration): one to two orders of magnitude below | concentration in tracheal lymph nodes ([3]; after 5 days of administration): 5.3 µg/g and 7.5 µg/g | concentration in tracheal lymph nodes ([3]; after 10 days of administration): 21.6 µg/g and 16.4 µg/g | plasma protein binding [3, 4]: low plasma protein binding | tissue affinity [3, 4]: high tissue affinity | accumulation in lymph nodes ([3]; rat, in vivo): noticeable accumulation
